In the NIST ThermoML archive (doi:10.1016/j.jct.2019.03.027):
“And” between values parts separate entries of the source, which are not always exact repeats. Equal values may be shown once.

Conditions: Liquid, Closed cell (Static) method

O=C=O [carbon dioxide]
Conditions | vapor or sublimation pressure
273.16 K | 3485.7 kPa
273.17 K | 3485.9 kPa
278.2 K | 3977 kPa and 3975 kPa
283.15 K | 4500.5 kPa and 4502 kPa
288.15 K | 5090.5 kPa and 5087 kPa
293.14 K | 5726.5 kPa and 5726.4 kPa
298.15 K | 6436.1 kPa and 6430.1 kPa
303.15 K | 7214.4 kPa
303.19 K | 7212.8 kPa
303.64 K | 7290.9 kPa
303.65 K | 7297.4 kPa
303.85 K | 7329 kPa and 7326.1 kPa
304.04 K | 7360.5 kPa and 7358.8 kPa
